Legend:
[1] = tested on: log phase Escherichia coli and Klebsiella pneumoniae; experiment: chequerboard method, MIC alone and in combination, log phase bacteria; type: cell-based; details: for MIC before combination: single agent, chequerboard
Description: In relation to (b) above, methods for determining activity against log phase bacteria include a determination, under standard conditions (i.e. conditions known to those skilled in the art, such as those described in WO 2005014585, the disclosures of which document are hereby incorporated by reference), of Minimum Inhibitory Concentration (“MIC”) or Minimum Bactericidal Concentration (“MBC”) for a test compound. Specific examples of such methods are described below. In Vitro Activity of Zidovudine Combined Together with Colistin Against Log Phase Escherichia coli and Klebsiella pneumoniae Using Chequerboard Method

log phase Klebsiella = experiment: time kill curve against log phase Klebsiella; type: cell-based

Compound | MIC of colistin in combination ([1]; combined with 2 μg/ml of HT0120663) [µg/mL] | MIC before combination [1] [µg/mL] | time kill outcome (log phase Klebsiella; Colistin at 16 μg/ml) | MIC of HT0120663 in combination ([1]; combined with 2 μg/ml of colistin) [µg/mL] | time kill outcome after 6 hours (log phase Klebsiella; HT0120663 at 4 μg/ml, after the 6 hour kill) | log kill (log phase Klebsiella; HT0120663 at 4 μg/ml, at 6 hours)
Colistin | 0.25 | 4 | inhibition up to 6 hours | – | – | –
Cc1cn([C@H]2C[C@H](N=[N+]=[N-])[C@@H](CO)O2)c(=O)[nH]c1=O [HT0120663, Zidovudine] | – | 4 | – | 1 | regrowth of the bacteria | about 1 log

Source: US9757427B2, “Combination comprising zidovudine and polymyxin” (HELPERBY THERAPEUTICS LIMITED, priority 2013, dated 2017)
